This is an account of results in patent publication US8871796B2, “Diaryl ether derivatives as notch sparing gamma secretase inhibitors” (Merck Sharp & Dohme Corp., priority 2009, dated 2014).

The assay is described as follows: APP processing: AlphaLisa assay of secreted Aβ40 and Aβ42 from SP4CT cells. Particulars: Homo sapiens, SH-SY5Y cells expressing amyloid β protein (SP4CT cells). The class given is cell-based. In a few lines:
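Secreted Aβ40 and Aβ42 were quantified separately by AlphaLisa luminescence, pairing streptavidin donor beads bearing biotinylated 4G8 with G210 or 12F4 acceptor beads. Samples were conditioned media from compound-treated SH-SY5Y cells expressing amyloid β protein (SP4CT).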

Where [1] appears, read: read-out: IC50, inhibition of production of Aβ40 peptide.
[2] abbreviates: read-out: IC50, inhibition of production of Aβ42 peptide.

pIC50: −log10 of the molar value. Read-outs that look alike come from different tables or passages of the source.

For `CCn1nc(Oc2ccc(C(F)(F)F)cc2)cc1-c1cccc(C2(NS(=O)(=O)NCC3CCC3)COC2)c1` [Example 103], the pIC50 (commonly −log10 of the IC50, conventionally taken in molar units) reads like this: under setting [1], > 6.70; under setting [2], > 6.70.

For `CCCNS(=O)(=O)NC(C)(C)c1cccc(-c2cc(Oc3ccc(C(F)(F)F)cc3)nn2CC)c1` [Example 23, N-[1-(3-{1-ethyl-3-[4-(trifluoromethyl)phenoxy]-1H-pyrazol-5-yl}phenyl)-1-methylethyl]-N′-propylsulfamide], the pIC50 runs as follows: under setting [1], > 6.70; under setting [2], > 6.70.

As for `CCn1nc(-c2cc(F)cc(C(C)(C)NS(=O)(=O)CC(F)(F)F)c2)cc1Oc1ccc(C(F)(F)F)cc1` [Example 15, N-[1-(3-{1-ethyl-5-[4-(trifluoromethyl)phenoxy]-1H-pyrazol-3-yl}-5-fluorophenyl)-1-methylethyl]-2,2,2-trifluoraethanesulfonamide], the pIC50 is > 6.70 under setting [1] and > 6.70 under setting [2].

For the compound `CCn1nc(-c2cccc(C(C)(C)NS(=O)(=O)CC(F)(F)F)c2)cc1Oc1ccccc1` [Example 57, N-{1-[3-(1-ethyl-5-phenoxy-1H-pyrazol-3-yl)phenyl]-1-methylethyl}-2,2,2-trifluoroethanesulfonamide], the pIC50 reads like this: under setting [1], > 6.70; under setting [2], > 6.70.

As for `CCn1nc(Oc2ccc(C(F)(F)F)cc2)cc1-c1cccc(C(C)(C)NS(=O)(=O)NCC(C)C)c1` [Example 17, N-[1-(3-{1-ethyl-3-[4-(trifluoromethyl)phenoxy]-1H-pyrazol-5-yl}phenyl)-1-methylethyl]-N′-isobutylsulfamide], the pIC50 was > 6.70 under setting [1] and > 6.70 under setting [2].

For the compound `CCn1nc(-c2cccc(C3(NS(=O)(=O)CC(F)(F)F)COC3)c2)cc1Oc1ccc(C(F)(F)F)cc1` [Example 95, N-[3-(3-{1-ethyl-5-[4-(trifluoromethyl)phenoxy]-1H-pyrazol-3-yl}phenyl)oxetan-3-yl]-2,2,2-trifluoroethanesulfonamide], the pIC50 under setting [1] is > 6.70 and the pIC50 under setting [2] is > 6.70.

On to `CCn1nc(-c2cccc(C3(NS(=O)(=O)CC)CC3)c2)cc1Oc1ccc(C(F)(F)F)cc1` [Example 38, N-[1-(3-{1-ethyl-5-[4-(trifluoromethyl)phenoxy]-1H-pyrazol-3-yl}phenyl)cyclopropyl] ethanesulfonamide], for which the negative-log IC50 (pIC50) under setting [1] was > 6.70 and the pIC50 under setting [2] is > 6.70.

As to `CCn1nc(-c2cccc(C(C)(C)NS(=O)(=O)CC(F)(F)F)c2)cc1Oc1ccc(C)cc1` [Example 59, N-(1-{3-[1-ethyl-5-(4-methylphenoxy)-1H-pyrazol-3-yl]phenyl}-1-methylethyl)-2,2,2-trifluoroethanesulfonamide], the pIC50 by setting is: under setting [1], > 6.70; under setting [2], > 6.70.

As to `CN(C)C(=O)Cn1nc(-c2cccc(C3(NS(=O)(=O)CC(F)(F)F)COC3)c2)cc1Oc1ccc(C(F)(F)F)cc1` [Example 131, 2-[5-(4-trifluoromethylphenoxy)-3-(3-{3-[(2,2,2-trifluoroethylsulfonyl)amino]oxetan-3-yl}phenyl)-1H-pyrazol-1-yl]-N,N-dimethylacetamide], the pIC50 under setting [1] was > 6.70 and the pIC50 under setting [2] was > 6.70.

On to `CCC(O)c1ccc(Oc2cc(-c3cccc(C(C)(C)NS(=O)(=O)CC(F)(F)F)c3)nn2CC)cc1` (centres unmarked) [Example 67, N-[1-(3-{1-ethyl-5-[4-(1-hydroxypropyl)phenoxy]-1H-pyrazol-3-yl}phenyl)-1-methylethyl]-2,2,2-trifluoroethanesulfonamide], for which the pIC50 is > 6.70 under setting [1] and > 6.70 under setting [2].

`CCn1nc(-c2cccc(C(C)(C)NS(=O)(=O)CC3CCC3)c2)cc1Oc1ccc(C(F)(F)F)cc1` [Example 2, 1-cyclobutyl-N-[1-(3-{1-ethyl-5-[4-(trifluoromethyl)phenoxy]-1H-pyrazol-3-yl}phenyl)-1-methylethyl]methanesulfonamide]: the pIC50 under setting [1] is > 6.70 and the pIC50 under setting [2] is > 6.70.

On to `Cc1nnc(Cn2nc(-c3cccc(C4(NS(=O)(=O)CC(F)(F)F)COC4)c3)cc2Oc2ccc(C(F)(F)F)cc2)o1` [Example 136, N-(3-{3-[5-(4-trifluoromethylphenoxy)-1-(5-methyl-1,3,4-oxadiazol-2-ylmethyl)-1H-pyrazol-3-yl]phenyl}oxetan-3-yl)-2,2,2-trifluoroethanesulfonamide], for which the pIC50 was > 6.70 under setting [1] and > 6.70 under setting [2].

As for `CCn1nc(-c2cccc(C3(NS(=O)(=O)NC4CCC4)CC3)c2)cc1Oc1ccc(C(F)(F)F)cn1` [Example 43, N-cyclobutyl-N′-{1-[3-(1-ethyl-5-{[5-(trifluoromethyl)pyridin-2-yl]oxy}-1H-pyrazol-3-yl)phenyl]cyclopropyl} sulfamide], the pIC50 is > 6.70 under setting [1] and > 6.70 under setting [2].

For the compound `CCn1nc(-c2cccc(C(C)(C)NS(=O)(=O)CC(F)(F)F)c2)cc1Oc1ccc(CF)cc1` [Example 63, N-[1-(3-{1-ethyl-5-[4-(fluoromethyl)phenoxy]-1H-pyrazol-3-yl}phenyl)-1-methylethyl]-2,2,2-trifluoroethanesulfonamide], the pIC50 by setting is: under setting [1], > 6.70; under setting [2], > 6.70.

`CCn1nc(-c2cccc(C(C)(C)NS(=O)(=O)CC(F)(F)F)c2)cc1Oc1ccc(CN2CC=C(C(F)(F)F)CC2)cc1` [Example 80, N-(1-{3-[1-ethyl-5-(4-{[4-(trifluoromethyl)-3,6-dihydropyridin-1(2H)-yl]methyl}phenoxy)-1H-pyrazol-3-yl]phenyl}-1-methylethyl)-2,2,2-trifluoroethanesulfonamide]: the pIC50 was > 6.70 under setting [1] and > 6.70 under setting [2].

On to `CCn1nc(-c2cccc(C3(NS(=O)(=O)CC(F)(F)F)CC3)c2)cc1Oc1ccc(C(F)(F)F)cc1` [Example 28, N-[1-(3-{1-ethyl-5-[4-(trifluoromethyl)phenoxy]-1H-pyrazol-3-yl}phenyl)cyclopropyl]-2,2,2-trifluoroethanesulfonamide], for which the pIC50 runs as follows: under setting [1], > 6.70; under setting [2], > 6.70.

Regarding `CCn1nc(Oc2ccc(C(F)(F)F)cc2)cc1-c1cccc(C2(NS(=O)(=O)NCC(F)(F)F)COC2)c1` [Example 101, N-[3-(3-{1-ethyl-3-[4-(trifluoromethyl)phenoxy]-1H-pyrazol-5-yl}phenyl)oxetan-3-yl]-N′-(2,2,2-trifluoroethyl)sulfamide], the pIC50 is > 6.70 under setting [1] and > 6.70 under setting [2].

On to `CCn1nc(-c2cccc(C(C)(C)NS(=O)(=O)CC(F)(F)F)c2)cc1Oc1ccc(CN2CCC3(CC2)OCCO3)cc1` [Example 87, N-[1-(3-{5-[4-(1,4-dioxa-8-azaspiro[4.5]dec-8-ylmethyl)phenoxy]-1-ethyl-1H-pyrazol-3-yl}phenyl)-1-methylethyl]-2,2,2-trifluoroethanesulfonamide], for which the pIC50 runs as follows: under setting [1], > 6.70; under setting [2], > 6.70.

As for `CCn1nc(-c2cccc(C3(NS(=O)(=O)CC4CCC4)CC3)c2)cc1Oc1ccc(C(F)(F)F)cn1` [Example 42, 1-cyclobutyl-N-{1-[3-(1-ethyl-5-{[5-(trifluoromethyl)pyridin-2-yl]oxy}-1H-pyrazol-3-yl)phenyl]cyclopropyl} methanesulfonamide], the pIC50 is, setting by setting: under setting [1], > 6.70; under setting [2], > 6.70.
